Experiments:
CDK2/Cyclin A2 = CDK2/Cyclin A2 (Homo sapiens, UniProt P24941); assay: Inhibition of CDK2/CycA (unknown origin) using histone H1 as substrate after 20 mins; type: protein-complex assay
[1] = target: Dual specificity mitogen-activated protein kinase kinase 1 (Homo sapiens, UniProt Q02750); assay: Inhibition of N-terminal GST-tagged MEK1 (unknown origin) expressed in 293 cells using GST-ERK1(K71A) as substrate after 20 mins
[2] = target: Mitogen-activated protein kinase 3 (Homo sapiens, UniProt P27361); assay: Inhibition of C-terminal FLAG-tagged ERK1 expressed in baculovirus system (unknown origin) using MBP as substrate after 60 mins
[3] = target: Mitogen-activated protein kinase kinase kinase 1 (Homo sapiens, UniProt Q13233); assay: Inhibition of C-terminal FLAG-tagged MEKK1 (unknown origin) expressed in baculovirus system using MBP as substrate after 60 mins
[4] = Antitumor activity against human HMVII cells expressing NRAS Q61K/BRAF G469V mutant xenografted in F344 nude rat assessed as reduction in tumor size at 3.9 mg/kg, po bid for 14 days relative to control; type: functional, HMV-2
[5] = target: T1, Serine/threonine-protein kinase B-raf (Homo sapiens, UniProt P15056, V600E); assay: Inhibition of BRAF V600E mutant (unknown origin) compound preincubated for 1 hr in presence of 5 uM ATP
Target sequence in this assay (P15056 2-766 V600E limits assumed): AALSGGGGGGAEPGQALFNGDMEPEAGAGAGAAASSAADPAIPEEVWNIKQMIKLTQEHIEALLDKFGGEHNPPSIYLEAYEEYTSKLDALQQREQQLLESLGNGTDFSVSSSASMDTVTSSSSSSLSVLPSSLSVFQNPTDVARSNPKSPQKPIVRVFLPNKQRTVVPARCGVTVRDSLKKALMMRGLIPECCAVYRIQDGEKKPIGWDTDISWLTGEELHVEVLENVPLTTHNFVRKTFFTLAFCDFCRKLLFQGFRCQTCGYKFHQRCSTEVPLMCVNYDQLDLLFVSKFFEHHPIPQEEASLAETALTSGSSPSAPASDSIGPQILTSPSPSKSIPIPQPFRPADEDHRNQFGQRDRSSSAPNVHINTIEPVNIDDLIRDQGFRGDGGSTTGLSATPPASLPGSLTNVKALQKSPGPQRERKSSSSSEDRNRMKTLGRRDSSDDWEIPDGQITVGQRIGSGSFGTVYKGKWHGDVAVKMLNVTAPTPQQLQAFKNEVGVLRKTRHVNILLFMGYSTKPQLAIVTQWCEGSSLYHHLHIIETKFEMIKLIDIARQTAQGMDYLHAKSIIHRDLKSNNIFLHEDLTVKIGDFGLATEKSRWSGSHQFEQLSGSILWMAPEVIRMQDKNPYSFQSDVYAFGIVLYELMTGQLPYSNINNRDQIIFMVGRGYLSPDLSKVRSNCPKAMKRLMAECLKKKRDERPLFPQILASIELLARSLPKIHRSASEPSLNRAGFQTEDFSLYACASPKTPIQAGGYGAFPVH

[6] = AUC (0 to 24 hrs) in rat at 1 mg/kg, iv; type: ADME, organism-based; set-up: time < 24 hr, dose 1 mg/kg, route intravenous; conditions: plasma
[7] = target: T1, Serine/threonine-protein kinase B-raf; assay: Inhibition of BRAF V600E mutant in human A375 cells assessed as phosphorylation of MEK after 2 hrs by Western blotting analysis; type: cell-based, A-375
Target sequence in this assay (P15056 2-766 V600E limits assumed): as above

[8] = target: T1, Serine/threonine-protein kinase B-raf; assay: Inhibition of BRAF V600E mutant (unknown origin) in presence of 1000 uM ATP by ELISA
Target sequence in this assay (P15056 2-766 V600E limits assumed): as above

[9] = target: T2, RAF proto-oncogene serine/threonine-protein kinase (Homo sapiens, UniProt P04049)
T2 sequence (P04049 whole entry): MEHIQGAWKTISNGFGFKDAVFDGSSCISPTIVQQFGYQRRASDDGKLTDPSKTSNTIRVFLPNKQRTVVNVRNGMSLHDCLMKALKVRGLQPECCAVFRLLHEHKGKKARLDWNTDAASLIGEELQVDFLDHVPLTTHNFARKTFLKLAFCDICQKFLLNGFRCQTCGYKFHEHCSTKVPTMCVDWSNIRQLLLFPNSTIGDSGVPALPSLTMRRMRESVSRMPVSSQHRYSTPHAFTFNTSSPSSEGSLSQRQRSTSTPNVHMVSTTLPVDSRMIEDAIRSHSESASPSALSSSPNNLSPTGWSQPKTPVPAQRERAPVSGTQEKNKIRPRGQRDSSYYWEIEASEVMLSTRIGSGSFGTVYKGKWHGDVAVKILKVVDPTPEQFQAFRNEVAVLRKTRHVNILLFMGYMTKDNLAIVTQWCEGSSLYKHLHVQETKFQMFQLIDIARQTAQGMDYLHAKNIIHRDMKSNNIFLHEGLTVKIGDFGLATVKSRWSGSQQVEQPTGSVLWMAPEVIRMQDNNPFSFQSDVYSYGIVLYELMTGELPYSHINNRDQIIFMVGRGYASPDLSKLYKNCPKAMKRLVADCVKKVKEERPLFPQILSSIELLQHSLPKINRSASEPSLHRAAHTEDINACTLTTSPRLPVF
Description: Binding affinity to CRAF (unknown origin) assessed as dissociation half life by surface plasmon resonance analysis

[10] = target: T1, Serine/threonine-protein kinase B-raf
Target sequence in this assay (P15056 whole entry V600E): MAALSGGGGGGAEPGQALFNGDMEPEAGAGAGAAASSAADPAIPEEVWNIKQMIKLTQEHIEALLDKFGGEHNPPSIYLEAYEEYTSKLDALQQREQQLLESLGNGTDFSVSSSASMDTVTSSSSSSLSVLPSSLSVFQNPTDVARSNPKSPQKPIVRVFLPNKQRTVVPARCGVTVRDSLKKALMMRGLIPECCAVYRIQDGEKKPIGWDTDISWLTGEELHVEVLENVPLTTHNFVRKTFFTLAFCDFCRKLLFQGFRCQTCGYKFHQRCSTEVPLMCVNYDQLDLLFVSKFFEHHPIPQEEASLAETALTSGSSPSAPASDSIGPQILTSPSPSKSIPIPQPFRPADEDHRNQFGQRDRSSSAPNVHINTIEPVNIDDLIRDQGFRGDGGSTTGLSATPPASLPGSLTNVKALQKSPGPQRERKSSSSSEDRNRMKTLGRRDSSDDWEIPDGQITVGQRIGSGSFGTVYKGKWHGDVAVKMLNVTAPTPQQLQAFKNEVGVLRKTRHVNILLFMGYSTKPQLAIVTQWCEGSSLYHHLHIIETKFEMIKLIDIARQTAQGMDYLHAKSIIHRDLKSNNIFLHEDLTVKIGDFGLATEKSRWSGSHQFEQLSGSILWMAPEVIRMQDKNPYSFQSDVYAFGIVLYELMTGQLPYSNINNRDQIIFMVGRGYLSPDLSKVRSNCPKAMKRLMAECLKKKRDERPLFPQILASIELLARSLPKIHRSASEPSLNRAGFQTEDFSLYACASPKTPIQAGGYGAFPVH

A-375 [11] = assay: Antiproliferative activity against human A375 cells assessed as growth inhibition after 72 hrs by chemi-luminescence cell viability assay; type: functional; conditions: A-375, 72 h
[12] = target: T2, RAF proto-oncogene serine/threonine-protein kinase; assay: Inhibition of CRAF (unknown origin) in presence of 1000 uM ATP by ELISA
Rattus norvegicus [13] = assay: Toxicity in F344 nude rat xenografted with human A375 cells expressing BRAF V600E mutant assessed as body weight change at 24.1 mg/kg, po bid for 14 days relative to control; type: organism-based, A-375; set-up: dose 24.1 mg/kg, route oral; conditions: in vivo, 336 h
[14] = Oral bioavailability in rat at 25 mg/kg; type: ADME, organism-based; conditions: in vivo
[15] = Inhibition of NRASQ61k/BRAFG469V-mutant in human HMVII cells assessed as phosphorylation of MEK after 2 hrs by Western blotting analysis; type: cell-based
[16] = target: T2, RAF proto-oncogene serine/threonine-protein kinase; assay: Inhibition of CRAF (unknown origin) compound preincubated for 1 hr in presence of 1000 uM ATP
[17] = AUC (0 to 24 hrs) in dog at 10 mg/kg, po; type: ADME, organism-based, Canis lupus familiaris; set-up: time < 24 hr, dose 10 mg/kg, route oral; conditions: plasma
[18] = Volume of distribution at steady state in rat at 1 mg/kg, iv; type: ADME, organism-based; set-up: dose 1 mg/kg, route intravenous; conditions: in vivo, read-out: Vdss
[19] = Total clearance in rat at 1 mg/kg, iv; type: ADME, organism-based; set-up: dose 1 mg/kg, route intravenous; conditions: in vivo
[20] = Oral bioavailability in dog at 10 mg/kg; type: ADME, organism-based, Canis lupus familiaris; conditions: in vivo
[21] = target: Serine/threonine-protein kinase Chk1 (Homo sapiens, UniProt O14757); assay: Inhibition of CHK1 (unknown origin) using alpha-casein as substrate after 20 mins
Sequence of Serine/threonine-protein kinase Chk1 (O14757 whole entry): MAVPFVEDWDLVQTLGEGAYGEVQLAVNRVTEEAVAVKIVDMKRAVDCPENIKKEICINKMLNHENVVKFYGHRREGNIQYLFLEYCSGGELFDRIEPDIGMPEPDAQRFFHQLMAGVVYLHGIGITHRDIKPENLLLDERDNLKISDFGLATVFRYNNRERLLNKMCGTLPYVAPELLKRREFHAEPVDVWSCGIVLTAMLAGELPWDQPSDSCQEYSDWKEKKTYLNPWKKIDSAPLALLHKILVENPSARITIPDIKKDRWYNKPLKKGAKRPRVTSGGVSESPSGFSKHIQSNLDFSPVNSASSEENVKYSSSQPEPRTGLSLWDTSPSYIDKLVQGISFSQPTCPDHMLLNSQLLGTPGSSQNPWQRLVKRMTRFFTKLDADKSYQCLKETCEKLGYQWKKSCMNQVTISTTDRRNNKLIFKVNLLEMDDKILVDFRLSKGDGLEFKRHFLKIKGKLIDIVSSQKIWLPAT

Rattus norvegicus [22] = assay: Toxicity in F344 nude rat xenografted with human HMVII cells expressing NRAS Q61K/BRAF G469V mutant assessed as body weight change at 3.9 mg/kg, po bid for 14 days; type: organism-based; set-up: dose 3.9 mg/kg, route oral; conditions: in vivo, 336 h
[23] = target: T1, Serine/threonine-protein kinase B-raf; assay: Inhibition of BRAF V600E mutant (unknown origin) compound preincubated for 1 hr in presence of 1000 uM ATP
Target sequence in this assay (P15056 2-766 V600E limits assumed): as the sequence (P15056 2-766 V600E limits assumed) above

[24] = target: T2, RAF proto-oncogene serine/threonine-protein kinase; assay: Inhibition of N-terminal FLAG-tagged wild type C-RAF (unknown origin) expressed in baculovirus system using GST-MEK1(K96R) as substrate after 20 mins
[25] = target: Mitogen-activated protein kinase 8 (Homo sapiens, UniProt P45983); assay: Inhibition of C-terminal FLAG-tagged JNK1 (unknown origin) expressed in baculovirus system using c-jun as substrate after 60 mins
A-375 [26] = assay: Antitumor activity against human A375 cells expressing BRAF V600E mutant xenografted in F344 nude rat assessed as reduction in tumor size at 3.9 mg/kg, po bid for 14 days relative to control; type: functional
Rattus norvegicus [27] = assay: Toxicity in F344 nude rat xenografted with human A375 cells expressing BRAF V600E mutant assessed as body weight change at 3.9 mg/kg, po bid for 14 days relative to control; type: organism-based, A-375; set-up: dose 3.9 mg/kg, route oral; conditions: in vivo, 336 h
Homo sapiens = organism: Homo sapiens; assay: Selectivity factor, ratio of IC50 for VEGFR2 (unknown origin) to IC50 for N-terminal FLAG-tagged recombinant BRAF-V600E (unknown origin) expressed in baculovirus system
[28] = Volume of distribution at steady state in dog at 1 mg/kg, iv; type: ADME, organism-based, Canis lupus familiaris; set-up: dose 1 mg/kg, route intravenous; conditions: in vivo, read-out: Vdss
[29] = target: T2, RAF proto-oncogene serine/threonine-protein kinase; assay: Binding affinity to CRAF (unknown origin) assessed as equilibrium dissociation constant by surface plasmon resonance analysis
[30] = Total clearance in dog at 1 mg/kg, iv; type: ADME, organism-based, Canis lupus familiaris; set-up: dose 1 mg/kg, route intravenous; conditions: in vivo
[31] = AUC (0 to 24 hrs) in rat at 25 mg/kg, po; type: ADME, organism-based; set-up: time < 24 hr, dose 25 mg/kg, route oral; conditions: plasma
[32] = target: Proto-oncogene tyrosine-protein kinase Src (Homo sapiens, UniProt P12931); assay: Inhibition of Src receptor (unknown origin) using biotinylated poly-Glu-Tyr (4:1) as substrate preincubated for 5 mins measured after 12 hrs
Sequence of Proto-oncogene tyrosine-protein kinase Src (P12931 2-536 limits assumed): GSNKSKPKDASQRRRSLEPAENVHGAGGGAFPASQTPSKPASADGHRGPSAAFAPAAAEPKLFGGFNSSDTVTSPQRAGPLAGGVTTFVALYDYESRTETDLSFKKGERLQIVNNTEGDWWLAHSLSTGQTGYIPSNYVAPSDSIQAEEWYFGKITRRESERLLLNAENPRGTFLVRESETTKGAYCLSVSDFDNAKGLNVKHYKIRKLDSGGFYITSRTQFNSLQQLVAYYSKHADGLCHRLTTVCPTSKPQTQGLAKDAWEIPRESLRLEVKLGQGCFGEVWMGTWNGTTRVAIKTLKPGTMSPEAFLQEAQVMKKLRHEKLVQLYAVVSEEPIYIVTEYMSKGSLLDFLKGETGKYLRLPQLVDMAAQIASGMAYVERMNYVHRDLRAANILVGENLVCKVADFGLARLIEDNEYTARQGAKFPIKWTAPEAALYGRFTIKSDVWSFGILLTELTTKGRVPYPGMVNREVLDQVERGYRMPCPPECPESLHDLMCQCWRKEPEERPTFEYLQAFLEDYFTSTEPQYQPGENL

[33] = AUC (0 to 24 hrs) in dog at 1 mg/kg, iv; type: ADME, organism-based, Canis lupus familiaris; set-up: time < 24 hr, dose 1 mg/kg, route intravenous; conditions: plasma
A-375 [34] = assay: Antitumor activity against human A375 cells expressing BRAF V600E mutant xenografted in F344 nude rat assessed as reduction in tumor size at 1.9 mg/kg, po bid for 14 days relative to control; type: functional
[35] = target: Inhibitor of nuclear factor kappa-B kinase subunit beta (Homo sapiens, UniProt O14920); assay: Inhibition of C-terminal FLAG-tagged IKK beta (unknown origin) expressed in baculovirus system using IkappaBalpha as substrate after 40 mins
[36] = target: Receptor tyrosine-protein kinase erbB-2 (Homo sapiens, UniProt P04626); assay: Inhibition of N-terminal peptide (DYKDDDD)-tagged HER2 (unknown origin) expressed in baculovirus system using biotinylated poly-Glu-Tyr (4:1) as substrate preincubated for 5 mins measured after 12 hrs by scintillation counting
Sequence of Receptor tyrosine-protein kinase erbB-2 (P04626 whole entry): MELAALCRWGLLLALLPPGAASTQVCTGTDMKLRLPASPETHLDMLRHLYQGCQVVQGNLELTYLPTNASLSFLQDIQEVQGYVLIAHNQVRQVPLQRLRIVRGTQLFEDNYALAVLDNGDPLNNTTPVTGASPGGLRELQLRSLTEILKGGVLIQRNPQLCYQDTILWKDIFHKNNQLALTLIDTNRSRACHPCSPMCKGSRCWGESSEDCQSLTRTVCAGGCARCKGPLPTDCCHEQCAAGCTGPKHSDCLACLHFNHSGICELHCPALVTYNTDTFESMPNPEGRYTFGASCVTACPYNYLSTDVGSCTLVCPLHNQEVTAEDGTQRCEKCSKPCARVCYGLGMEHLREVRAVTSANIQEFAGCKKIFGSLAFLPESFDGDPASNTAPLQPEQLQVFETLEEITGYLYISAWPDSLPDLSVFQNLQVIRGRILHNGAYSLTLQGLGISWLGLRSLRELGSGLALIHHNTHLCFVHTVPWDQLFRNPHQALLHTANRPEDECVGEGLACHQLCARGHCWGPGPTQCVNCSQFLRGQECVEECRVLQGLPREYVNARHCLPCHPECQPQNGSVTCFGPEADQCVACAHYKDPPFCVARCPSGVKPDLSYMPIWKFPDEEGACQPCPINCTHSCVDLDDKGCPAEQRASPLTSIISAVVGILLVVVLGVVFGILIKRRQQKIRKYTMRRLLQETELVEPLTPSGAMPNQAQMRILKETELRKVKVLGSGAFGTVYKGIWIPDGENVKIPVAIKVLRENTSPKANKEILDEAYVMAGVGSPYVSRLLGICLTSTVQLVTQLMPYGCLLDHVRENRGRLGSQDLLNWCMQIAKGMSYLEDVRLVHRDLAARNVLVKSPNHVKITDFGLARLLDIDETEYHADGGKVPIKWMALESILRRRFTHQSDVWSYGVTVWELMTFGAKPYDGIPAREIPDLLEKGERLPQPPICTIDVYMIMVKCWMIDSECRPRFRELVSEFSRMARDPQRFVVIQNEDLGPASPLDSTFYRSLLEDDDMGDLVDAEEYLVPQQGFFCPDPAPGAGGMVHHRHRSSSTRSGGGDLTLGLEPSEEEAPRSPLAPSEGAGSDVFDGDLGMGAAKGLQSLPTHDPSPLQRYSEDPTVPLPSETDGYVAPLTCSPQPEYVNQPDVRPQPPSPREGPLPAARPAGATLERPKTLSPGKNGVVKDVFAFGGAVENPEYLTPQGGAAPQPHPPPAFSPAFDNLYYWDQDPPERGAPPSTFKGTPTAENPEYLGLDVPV

Rattus norvegicus [37] = assay: Toxicity in F344 nude rat xenografted with human A375 cells expressing BRAF V600E mutant assessed as body weight change at 1.9 mg/kg, po bid for 14 days relative to control; type: organism-based, A-375; set-up: dose 1.9 mg/kg, route oral; conditions: in vivo, 336 h
[38] = target: Serine/threonine-protein kinase B-raf (Homo sapiens, UniProt P15056)
Sequence of Serine/threonine-protein kinase B-raf (Homo sapiens, UniProt P15056) (P15056 whole entry): as the sequence (P15056 whole entry V600E) above, with E600V counted along it
Description: Binding affinity to BRAF (unknown origin) assessed as dissociation half life by surface plasmon resonance analysis

Sequence of Dual specificity mitogen-activated protein kinase kinase 1 (Q02750 whole entry): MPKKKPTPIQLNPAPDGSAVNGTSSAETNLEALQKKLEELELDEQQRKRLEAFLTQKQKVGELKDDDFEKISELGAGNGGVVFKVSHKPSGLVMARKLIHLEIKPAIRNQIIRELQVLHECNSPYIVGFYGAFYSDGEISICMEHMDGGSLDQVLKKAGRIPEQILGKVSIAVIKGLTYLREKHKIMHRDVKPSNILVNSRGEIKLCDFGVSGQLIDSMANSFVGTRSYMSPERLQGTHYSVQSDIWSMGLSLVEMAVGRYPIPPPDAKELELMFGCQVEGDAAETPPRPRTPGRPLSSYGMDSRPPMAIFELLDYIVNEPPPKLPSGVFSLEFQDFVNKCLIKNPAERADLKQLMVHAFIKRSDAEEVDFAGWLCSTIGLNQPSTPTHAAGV

## N#Cc1c(Oc2ccc(F)c(NC(=O)Cc3cccc(C(F)(F)F)c3)c2)ccc2nc(NC(=O)C3CC3)sc12
CDK2/Cyclin A2
  IC50: 580 nM
[1]
  IC50: 3700 nM
[2]
  IC50: > 10000 nM
[3]
  IC50: > 10000 nM
[4]
  T/C: 52%
[5]
  IC50: 2.2 nM
[6]
  AUC(0-t) at 24 h: 2510 ng·h/mL
[7]
  IC50: 12 nM
[8]
  IC50: 58 nM
[9]
  T1/2: 2.15 h
[10]
  IC50: 15 nM
A-375 [11]
  GI50: 66 nM
[12]
  IC50: 62 nM
Rattus norvegicus [13]
  Activity: 18.6 g
[14]
  bioavailability: 51.7%
[15]
  IC50: 49 nM
[16]
  IC50: 5 nM
[17]
  AUC(0-t) at 24 h: 15500 ng·h/mL
[18]
  Vd: 1.87 L/kg
[19]
  clearance: 6.67 mL/min/kg
[20]
  bioavailability: 108%
[21]
  IC50: 1400 nM
Rattus norvegicus [22]
  Activity: -4.8 g
[23]
  IC50: 3.3 nM
[24]
  IC50: 1.4 nM
[25]
  IC50: > 10000 nM
A-375 [26]
  T/C: 62.2%
Rattus norvegicus [27]
  Activity: 11.2 g
Homo sapiens
  Ratio IC50: 67
[28]
  Vd: 1.57 L/kg
[29]
  Kd: 0.52 nM
[30]
  clearance: 11.7 mL/min/kg
[31]
  AUC(0-t) at 24 h: 32500 ng·h/mL
[32]
  IC50: > 10000 nM
[33]
  AUC(0-t) at 24 h: 1430 ng·h/mL
A-375 [34]
  T/C: 103%
[35]
  IC50: 3700 nM
[36]
  IC50: > 10000 nM
Rattus norvegicus [37]
  Activity: 9.3 g
[38]
  T1/2: 10 h
